The values below are quoted from earlier work in article PMC3076957 (Chemico-biological interactions, 2008).

For series [1], the target named is T1, AKR1C3 (Homo sapiens, UniProt P42330).
T1 sequence (P42330 1-323): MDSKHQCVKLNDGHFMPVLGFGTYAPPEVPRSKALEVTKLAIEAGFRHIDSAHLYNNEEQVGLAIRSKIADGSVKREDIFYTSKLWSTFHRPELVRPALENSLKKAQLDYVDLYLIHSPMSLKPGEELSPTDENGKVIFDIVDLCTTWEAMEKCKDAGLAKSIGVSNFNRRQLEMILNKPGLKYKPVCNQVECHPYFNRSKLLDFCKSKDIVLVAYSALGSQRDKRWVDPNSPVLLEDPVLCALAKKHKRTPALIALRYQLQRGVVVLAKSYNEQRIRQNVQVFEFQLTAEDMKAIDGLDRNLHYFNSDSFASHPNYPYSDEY
Kind of series: enzyme inhibition assay. The following applies: read-out: IC50 values (μM) / AKR1C3.

In series [2] the target is T1, AKR1C3. Description: inhibition of androstenedione reduction, Lineweaver-Burk. It counts as biochemical.
Series [3] addresses T1, AKR1C3. Kind of series: inhibition of […],10-phenanthrenequinone reduction. The following applies: read-out: IC50 values (μM) / AKR1C3. The class given is biochemical.
For another series, the target named is AKR1C2 (Homo sapiens, UniProt P52895). The following applies: read-out: IC50 values (μM) / AKR1C2.
Chain of AKR1C2 (P52895 whole entry): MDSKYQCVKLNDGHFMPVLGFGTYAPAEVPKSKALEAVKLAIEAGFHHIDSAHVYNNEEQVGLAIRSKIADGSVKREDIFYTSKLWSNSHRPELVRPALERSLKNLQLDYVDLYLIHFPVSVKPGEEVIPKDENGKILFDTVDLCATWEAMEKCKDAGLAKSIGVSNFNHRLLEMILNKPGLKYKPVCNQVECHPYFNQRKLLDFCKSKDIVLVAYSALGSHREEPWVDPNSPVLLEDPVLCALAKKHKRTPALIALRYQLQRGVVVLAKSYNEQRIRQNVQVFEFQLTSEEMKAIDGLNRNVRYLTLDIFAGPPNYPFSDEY

Take `O=C(O)c1ccc(Nc2ccc([N+](=O)[O-])cc2[N+](=O)[O-])cc1` [4-Carboxy-2′,4′-dinitrodiphenylamine]: the Ki at AKR1C3 [1] is 0.38 µM.
On to `COc1ccc2c(c1)c(CCNC(C)=O)cn2C(=O)c1ccc(Cl)cc1` [CBM, N-(4-chlorobenzoyl)-melatonin], for which the Ki on AKR1C3 [2] was 6 µM.
Turning to `Cc1ccc(Cl)c(Nc2ccccc2C(=O)O)c1Cl` [Meclofenamic Acid], the IC50 on AKR1C3 [3] is 0.7 µM.
Take `O=C(O)c1ccc(C(=O)c2ccccc2)cc1` [4-Benzoyl-benzoic acid]: the Ki at AKR1C3 [1] was 1.9 µM.
Regarding `COc1ccc2cc([C@H](C)C(=O)O)ccc2c1` [Naproxen], the IC50 on AKR1C2 was 1.2 µM.
